The values below come from patent US12065429B2, “Small molecule modulators of IL-17” (LEO Pharma A/S, priority 2022, dated 2024).

Data set [1] can be described thus: Human liver microsome (HLM) clearance assay. The format is in vitro ADME. The settings on record: human liver microsomes 0.5 mg/mL, NADPH 1 mM, 0.5 μM compound, 40 min. How it is done:
Example 63: Human Liver Microsome (HLM) Clearance Assay
Samples were taken out before addition of NADPH, and at 5, 10, 20 and 40 minutes thereafter and protein precipitation using cold acetonitrile with added internal standard was performed prior to centrifugation and sample analysis using compound specific LCMS/MS methods. Control incubations in buffer and without NADPH were performed in the same manner. Compound depletion was determined and apparent clearance (CLapp) was calculated.
(Liver microsomes are a subcellular fraction often used to study metabolism.)

A further data set can be described thus: Solubility assay. The class given is physicochemical. The settings on record: 0.067 M phosphate buffer pH 6.5, 24 hours shaking, from 10 mM DMSO stock; for solubility at 24 h: aqueous buffer, kinetic from dmso stock. How it is done:
After centrifugation, the supernatant was analyzed by HPLC-UV. The solubility was defined as the concentration of the test substance in the selected solvent. It was determined by correlation with an external standard calibration curve.

For a further data set, the target named is T1, recombinant IL-17AA (Homo sapiens, UniProt Q16552).
T1 construct: purchased R&D Systems 7955-IL
T1 sequence (Q16552 24-155): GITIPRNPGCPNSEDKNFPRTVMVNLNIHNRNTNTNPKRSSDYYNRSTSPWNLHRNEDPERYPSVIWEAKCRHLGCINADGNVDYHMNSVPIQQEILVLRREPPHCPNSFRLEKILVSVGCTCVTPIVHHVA
Briefly: Inhibition of recombinant IL-17AA-induced SEAP reporter gene activity in HEK-Blue IL-17 cells. The class given is cell-based. The settings on record: recombinant IL-17A 2 ng/ml, overnight. How it is done:
Example 62: Inhibition of Recombinant IL-17AA-Induced SEAP Reporter Gene Activity in HEK-Blue™ IL-17 Cells
The assay was run according to the protocol provided by InvivoGen. Briefly, the HEK-Blue™ IL-17 cells (Invivogen, cat #hkb-il17) were suspended in the complete culture medium and seeded in a 96 well plate in a volume of 80 μl in a density of 50,000 cells per well the day before the assay. 10 μl of a solution of the test compounds were added in a serial gradient dilution to the cells followed by the addition of 10 μl IL-17A (R&D Systems cat #7955-IL) in a final concentration of 2 ng/ml. The plate was incubated overnight. The QUANTI-Blue™ solution was used to determine the SEAP activity; 180 μl QUANTI-Blue™ solution and 20 μl of the supernatant from the cell plate were mixed and incubated for 1 hour at 37 degrees Celsius. SEAP levels were measured using a spectrophotometer at 650 nm.
(In general: A reporter such as luciferase makes a cellular process visible.)

Converted amounts (≈) assume the structure as drawn.

Broadly, the solubility is how much of the substance goes into solution per volume. As a reminder, the EC50 is the concentration needed to bring the measured effect to its halfway point. In general, Solubility refers to the dissolved amount per volume that the medium holds. The low end stands for a poorly soluble substance, the high end for a readily soluble substance.

Take `Cc1cc(-c2ccc(NC(=O)[C@@H](NC(=O)c3ccnn3C(C)C)C(C3CC3)C3CC3)nc2F)c(C)[n+]([O-])c1` [Example 3, N-[(1S)-1-(dicyclopropylmethyl)-2-[[5-(2,5-dimethyl-1-oxido-pyridin-1-ium-3-yl)-6-fluoro-2-pyridyl]amino]-2-oxo-ethyl]-2-isopropyl-pyrazole-3-carboxamide]: the “HLM Clapp” value in data set [1] is on record as less than 8 mL/min/kg. In the data set “Solubility assay”, the solubility at 24 h came out at 45 µg/mL (≈ 86.4 µM). Besides, at recombinant IL-17AA, the EC50 stood at 17 nM.

Take `CCc1c(-c2ccc(NC(=O)[C@@H](NC(=O)c3ccnn3C(C)C)C(C3CC3)C3CC3)nc2F)cc(OC)c[n+]1[O-]` [Example 60, N-[(1S)-1-(dicyclopropylmethyl)-2-[[6-fluoro-5-(5-methoxy-2-ethyl-1-oxido-pyridin-1-ium-3-yl)-2-pyridyl]amino]-2-oxo-ethyl]-2-isopropyl-pyrazole-3-carboxamide]: the EC50 at recombinant IL-17AA worked out at 31 nM.

With `Cc1cc[n+]([O-])c(C)c1-c1ccc(NC(=O)[C@@H](NC(=O)c2ccnn2C(C)C)C(C2CC2)C2CC2)nc1Cl` (single isomer, unassigned) [Example 56], the “HLM Clapp” value in data set [1] is 16 mL/min/kg. In addition, the solubility at 24 h in “Solubility assay” is less than 1 µg/mL. Also, at recombinant IL-17AA, the EC50 was determined as 4.6 nM.

On to `Cc1c(-c2ccc(NC(=O)[C@@H](NC(=O)c3ccnn3C(C)C)C(C3CC3)C3CC3)nc2F)cc(S(C)(=O)=O)c[n+]1[O-]` [Example 58, N-[(1S)-1-(dicyclopropylmethyl)-2-[[6-fluoro-5-(2-methyl-5-methylsulfonyl-1-oxido-pyridin-1-ium-3-yl)-2-pyridyl]amino]-2-oxo-ethyl]-2-isopropyl-pyrazole-3-carboxamide], for which, in data set [1], the “HLM Clapp” value was 10 mL/min/kg. Also, in “Solubility assay”, the solubility at 24 h worked out at 14 µg/mL (≈ 23.9 µM). The EC50 at recombinant IL-17AA came to 100 nM.

Consider `Cc1c(-c2ccc(NC(=O)[C@@H](NC(=O)c3ccnn3C(C)C)C(C3CC3)C3CC3)nc2F)cc(C#N)c[n+]1[O-]` [Example 59, N-[(1S)-1-[[5-(5-cyano-2-methyl-1-oxido-pyridin-1-ium-3-yl)-6-fluoro-2-pyridyl]carbamoyl]-2,2-dicyclopropyl-ethyl]-2-isopropyl-pyrazole-3-carboxamide], for which the “HLM Clapp” value in data set [1] is less than 9 mL/min/kg. This compound also had a solubility at 24 h in “Solubility assay” of 29 µg/mL (≈ 54.6 µM). Further, at recombinant IL-17AA, the EC50 worked out at 46 nM.

For `COc1cc(-c2ccc(NC(=O)[C@@H](NC(=O)c3ccnn3C(C)C)C(C3CC3)C3CC3)nc2F)c(C)[n+]([O-])c1` [Example 1, N-[(1S)-1-(dicyclopropylmethyl)-2-[[6-fluoro-5-(5-methoxy-2-methyl-1-oxido-pyridin-1-ium-3-yl)-2-pyridyl]amino]-2-oxo-ethyl]-2-isopropyl-pyrazole-3-carboxamide], the “HLM Clapp” value in data set [1] is reported as 12 mL/min/kg. In “Solubility assay”, this compound gave a solubility at 24 h of 29 µg/mL (≈ 54 µM). Besides, on recombinant IL-17AA, the EC50 was found to be 11 nM.

`Cc1cc[n+]([O-])c(C)c1-c1ccc(NC(=O)[C@@H](NC(=O)c2ccnn2C(C)C)C(C2CC2)C2CC2)nc1Cl` (single isomer, unassigned) [Example 57]: the “HLM Clapp” value in data set [1] worked out at 18 mL/min/kg. Moreover, the “Solubility at pH 6.5” value in the data set “Solubility assay” is reported as less than 1 μg/mL. The EC50 on recombinant IL-17AA came to 740 nM.

Turning to `Cc1cc(-c2ccc(NC(=O)[C@@H](NC(=O)c3conc3C(C)C)C(C3CC3)C3CC3)nc2F)c(C)[n+]([O-])c1` [Example 22, N-[(1S)-1-(dicyclopropylmethyl)-2-[[5-(2,5-dimethyl-1-oxido-pyridin-1-ium-3-yl)-6-fluoro-2-pyridyl]amino]-2-oxo-ethyl]-3-isopropyl-isoxazole-4-carboxamide], in data set [1], the “HLM Clapp” value came out at 73 mL/min/kg. The solubility at 24 h in “Solubility assay” stood at 28 µg/mL (≈ 53.7 µM).

For the compound `Cc1c(-c2ccc(NC(=O)[C@@H](NC(=O)c3ccnn3C(C)C)C(C3CC3)C3CC3)nc2F)cc(OCF)c[n+]1[O-]` [Example 9, N-[(1S)-1-(dicyclopropylmethyl)-2-[[6-fluoro-5-[5-(fluoromethoxy)-2-methyl-1-oxido-pyridin-1-ium-3-yl]-2-pyridyl]amino]-2-oxo-ethyl]-2-isopropyl-pyrazole-3-carboxamide], the “HLM Clapp” value in data set [1] is less than 8 mL/min/kg. In addition, the solubility at 24 h in “Solubility assay” amounted to 23 µg/mL (≈ 41.5 µM).

On to `Cc1c(-c2ccc(NC(=O)[C@@H](NC(=O)c3ccnn3C(C)C)C(C3CC3)C3CC3)nc2F)ccc[n+]1[O-]` [Example 16, N-[(1S)-1-(dicyclopropylmethyl)-2-[[6-fluoro-5-(2-methyl-1-oxido-pyridin-1-ium-3-yl)-2-pyridyl]amino]-2-oxo-ethyl]-2-isopropyl-pyrazole-3-carboxamide], for which the “HLM Clapp” value in data set [1] was less than 8 mL/min/kg. Also, the solubility at 24 h in “Solubility assay” is 60 µg/mL (≈ 118 µM).

As for `Cc1c(-c2ccc(NC(=O)[C@@H](NC(=O)c3ccnn3C(C)C)C(C3CC3)C3CC3)nc2F)cc(C(F)(F)F)c[n+]1[O-]` [Example 12, N-[(1S)-1-(dicyclopropylmethyl)-2-[[6-fluoro-5-[2-methyl-1-oxido-5-(trifluoromethyl)pyridin-1-ium-3-yl]-2-pyridyl]amino]-2-oxo-ethyl]-2-isopropyl-pyrazole-3-carboxamide], the “HLM Clapp” value in data set [1] was less than 8 mL/min/kg. This compound yielded a solubility at 24 h in “Solubility assay” of 6 µg/mL (≈ 10.4 µM).
